species on record: Rattus norvegicus; settings: Cerebral cortex

Structure (SMILES)	logIC50
Cc1cccc(C)c1NC(=O)C(C)N (stereo not drawn)	2.3
C[N+](C)(CC(=O)Nc1ccccc1)CC(=O)Nc1ccccc1	0.59
CCC(OCCCc1ccccc1)(C(=O)CCCCc1ccccc1)c1ccccc1 (stereo not drawn)	0.63
CCCCCCCCCC1(c2ccccc2)NC(=O)N(S(C)(=O)=O)C1=O (stereo not drawn)	1.1
CC1CCCCN1CCCOC(=O)c1ccccc1 (stereo not drawn)	1.11
CCCCCCCCCC1(c2ccccc2)NC(=O)N(Cc2ccccc2)C1=O (stereo not drawn)	0.71
O=C(CCCN1CCC(O)(c2ccc(Cl)cc2)CC1)c1ccc(F)cc1	0.08
CCCCCCCCCC1(c2ccccc2)NC(=O)NC1=O (stereo not drawn)	0.7
CCC1(c2ccccc2)NC(=O)N(CN2CCN(C(c3ccccc3)c3ccccc3)CC2)C1=O (stereo not drawn)	0.52
CCCCCCC1(c2ccccc2)NC(=O)NC1=O (stereo not drawn)	1.11
CCCCN(CCCC)CCCOC(=O)c1ccc(N)cc1	0.43
CN(C)CCC(c1ccccc1)c1ccccn1 (stereo not drawn)	1.52
O=C1NC(=O)C(c2ccccc2)(c2ccccc2)N1	1.6
CCCCCCCC1(c2ccccc2)NC(=O)N(S(C)(=O)=O)C1=O (stereo not drawn)	1.11
CCCCCC1(c2ccccc2)NC(=O)N(CN2CCN(C(c3ccccc3)c3ccccc3)CC2)C1=O (stereo not drawn)	0.11
CCOC(=O)C1=C(C)NC(C)=C(C(=O)OC)C1c1cccc(Cl)c1Cl (stereo not drawn)	1.57
O=C1NC(=O)C2(CCCc3ccccc32)N1 (stereo not drawn)	2.93
CCCCCCCC1(c2ccccc2)OC(=O)NC1=O (stereo not drawn)	1.48
Cc1ccc2c(S(=O)(=O)NCCCCCCN)cccc2c1	1.08
CCCCCC(O)(C(=O)NCCC(c1ccccc1)c1ccccc1)c1ccccc1 (stereo not drawn)	0.4
CCN(CC)CC(=O)Nc1c(C)cccc1C	1.68
CCCCCC(O)(C(=O)NCCCc1ccccc1)c1ccccc1 (stereo not drawn)	0.72
CCCCCC1(c2ccccc2)NC(=O)N(Cc2ccccc2)C1=O (stereo not drawn)	0.84
CCCCOc1cc(C(=O)NCCN(CC)CC)c2ccccc2n1	0.78

Structure (SMILES)	logIC50
CCCNC(C)(C)COC(=O)c1ccccc1	0.88
O=C1NC(=O)C2(CCc3ccccc32)N1 (stereo not drawn)	3.32
CCCNC(C)C(=O)Nc1ccccc1C (stereo not drawn)	1.73
O=C1NC(=O)C2(CCCCCc3ccccc32)N1 (stereo not drawn)	2.4
CCN(CC)CCOC(=O)C1(C2CCCCC2)CCCCC1	0.45
CCCC1(c2ccccc2)NC(=O)N(S(C)(=O)=O)C1=O (stereo not drawn)	2.7
COC(=O)C1=C(C)NC(C)=C(C(=O)OCC(C)C)C1c1ccccc1[N+](=O)[O-] (stereo not drawn)	1.41
CCCCCCCCCC(O)(C(N)=O)c1ccccc1 (stereo not drawn)	0.81
CCCCCCCC1(c2ccccc2)NC(=O)NC1=O (stereo not drawn)	0.7
COc1cc2nc(N3CCN(C(=O)c4ccco4)CC3)nc(N)c2cc1OC	1.33
CC12C(=O)NC(=O)N1CCc1ccccc12 (stereo not drawn)	2.86
OCCN1CCN(CCCN2c3ccccc3Sc3ccc(C(F)(F)F)cc32)CC1	0.57
CCN1C(=O)NC(=O)C1(C)c1ccccc1 (stereo not drawn)	2.4
CCCCCCCC(O)(C(N)=O)c1ccccc1 (stereo not drawn)	0.95
CCCCOc1ccc(OCCCN2CCOCC2)cc1	1
CCCC1(c2ccccc2)OC(=O)NC1=O (stereo not drawn)	2.65
CCOC(=O)C1=C(C)NC(C)=C(C(=O)OC)C1c1cccc([N+](=O)[O-])c1 (stereo not drawn)	1.56
CCN(CC)CCOC(=O)c1ccc(N)cc1	2.04
OC(CCCN1CCCCC1)(c1ccccc1)c1ccccc1	0.53
CCCCC1(c2ccccc2)NC(=O)N(C)C1=O (stereo not drawn)	2.45
CC(C)COCC(CN(Cc1ccccc1)c1ccccc1)N1CCCC1 (stereo not drawn)	-0.08
CC(C)CNCCOC(=O)c1ccc(N)cc1	1.74
CCC(O)(C(=O)NCCC(c1ccccc1)c1ccccc1)c1ccccc1 (stereo not drawn)	0.91
COc1ccc(CCN(C)CCCC(C#N)(c2cc(OC)c(OC)c(OC)c2)C(C)C)cc1OC (stereo not drawn)	0.56

Structure (SMILES)	logIC50
CN(C)C(=O)C(CCN1CCC(O)(c2ccc(Cl)cc2)CC1)(c1ccccc1)c1ccccc1	-0.56
O=C1NC(=O)C2(CCCCc3ccccc32)N1 (stereo not drawn)	2.4
NCCCCCCNS(=O)(=O)c1cccc2ccccc12	1.34
CCC(O)(C(=O)NCCc1ccccc1)c1ccccc1 (stereo not drawn)	1.48
Cc1cccc(C)c1NC(=O)C1CCCCN1C (stereo not drawn)	2.28
CCCCCC(O)(C(=O)N1CCN(C(c2ccccc2)c2ccccc2)CC1)c1ccccc1 (stereo not drawn)	0.68
CCCOc1cc(N)ccc1C(=O)OCCN(CC)CC	1.38
CCOC(=O)c1ccc(N)cc1	2.86
CC(Cc1ccccc1)NCCC(c1ccccc1)c1ccccc1 (stereo not drawn)	-0.52
COC(=O)[C@H]1[C@@H](OC(=O)c2ccccc2)C[C@@H]2CC[C@H]1N2C	1.69
CCCCCC1(c2ccccc2)OC(=O)NC1=O (stereo not drawn)	2.5
CCC1(c2ccccc2)NC(=O)N(S(=O)(=O)c2ccc(C)cc2)C1=O (stereo not drawn)	1.7
COc1cc(C(=O)OCCCN2CCCN(CCCOC(=O)c3cc(OC)c(OC)c(OC)c3)CC2)cc(OC)c1OC	-0.22
CCCCCC1(c2ccccc2)NC(=O)NC1=O (stereo not drawn)	1.59
CCCC1(c2ccccc2)NC(=O)NC1=O (stereo not drawn)	2.21
CCOc1ccc(/N=C(\C)Nc2ccc(OCC)cc2)cc1	0.23
CCC(O)(C(=O)NCCCc1ccccc1)c1ccccc1 (stereo not drawn)	1.54
CCCCc1cc2ccccc2c(OCCN(C)C)n1	0.53
CN(C)C(=O)C(CCN1CCC(O)(c2ccc(Cl)c(C(F)(F)F)c2)CC1)(c1ccccc1)c1ccccc1	0.55
CCCCCC1(c2ccccc2)NC(=O)N(S(C)(=O)=O)C1=O (stereo not drawn)	2.05
CCCCOc1cc(C(=O)OCCN(CC)CC)ccc1N	0.46
CCCCCC(O)(C(=O)NCCc1ccccc1)c1ccccc1 (stereo not drawn)	0.7
CC(O)(C(=O)N1CCN(C(c2ccccc2)c2ccccc2)CC1)c1ccccc1 (stereo not drawn)	0.8
Clc1ccc(C(c2ccc(Cl)cc2)[n+]2ccn(CC(OCc3ccc(Cl)cc3Cl)c3ccc(Cl)cc3Cl)c2)cc1 (stereo not drawn)	0.85

test system: not listed separately; assay: Displacement of [3H]BTX-B from neuronal voltage-gated sodium channel in rat cerebral cortex synaptoneurosomes after 60 mins by scintillation counting; assay type: tissue-based; settings: not given

Structure (SMILES)	IC50 [nM]
c1ccc(C(CCCCCNC(c2ccccc2)c2ccccc2)c2ccccc2)cc1	345
c1ccc(C(CCCCNC(c2ccccc2)c2ccccc2)c2ccccc2)cc1	562
Fc1ccc(C(CCCNCCCc2ccccc2)c2ccc(F)cc2)cc1	229
c1ccc(CCN2CCN(C(c3ccccc3)c3ccccc3)CC2)cc1	257
CC(C)(C)c1ccc(C(=O)CCCN2CCN(C(c3ccccc3)c3ccccc3)CC2)cc1	128
c1ccc(CCCN2CCN(C(c3ccccc3)c3ccccc3)CC2)cc1	192
O=C(NCCN1CCN(C(c2ccccc2)c2ccccc2)CC1)c1ccccc1	283
c1ccc(CCCNCCc2ccccc2)cc1	340
c1ccc(CCCNCCCc2ccccc2)cc1	252
c1ccc(C(CCCCCCNC(c2ccccc2)c2ccccc2)c2ccccc2)cc1	560
Fc1ccc(C(CCCNCCc2ccccc2)c2ccc(F)cc2)cc1	1230
Cc1ccc(C(=O)CCCN2CCN(C(c3ccccc3)c3ccccc3)CC2)cc1C	156
c1ccc(C(CCNC(c2ccccc2)c2ccccc2)c2ccccc2)cc1	760
Fc1ccc(C(CCCN2CCN(C(c3ccccc3)c3ccccc3)CC2)c2ccc(F)cc2)cc1	119
c1ccc(C(CCCNC(c2ccccc2)c2ccccc2)c2ccccc2)cc1	1330
c1ccc(C(CNC(c2ccccc2)c2ccccc2)c2ccccc2)cc1	3160
